The values that follow come from patent US20260125382A1, “COMPOUNDS FOR INHIBITING OR DEGRADING CDK2 AND/OR CDK9 AND MEDICINAL USE THEREOF” (KOREA RESEARCH INSTITUTE OF CHEMICAL TECHNOLOGY, priority 2022, published 2026).

Molecules are shown by their SMILES.

One experiment deals with T1, CDK2 (Homo sapiens, UniProt P24941).
T1 construct: endogenous in cells; host or cells: MDA-MB-231
Kind of experiment: CDK protein degradation activity (Western blotting), CDK2. It counts as cell-based. To be noted: MDA-MB-231 cells, 16 hours, Western blot. The gist of the method:
(§1)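 MDA-MB-231 cells were treated with compound at final concentrations of 100 nM, 1 μM and 10 μM, or DMSO vehicle, for 16 h. Lysates were resolved by SDS-PAGE and immunoblotted for CDK2, CDK9 and tubulin, with band intensities quantified densitometrically.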
On the technique in general: Immunoblotting shows a protein as a band on a membrane.

Another experiment deals with T2, CDK9 (Homo sapiens, UniProt P50750).
T2 construct: endogenous in cells; host or cells: MDA-MB-231
Kind of experiment: CDK protein degradation activity (Western blotting), CDK9. Format: cell-based. To be noted: MDA-MB-231 cells, 16 hours, Western blot. The gist of the method: as §1

T2 sequence (P50750 whole entry): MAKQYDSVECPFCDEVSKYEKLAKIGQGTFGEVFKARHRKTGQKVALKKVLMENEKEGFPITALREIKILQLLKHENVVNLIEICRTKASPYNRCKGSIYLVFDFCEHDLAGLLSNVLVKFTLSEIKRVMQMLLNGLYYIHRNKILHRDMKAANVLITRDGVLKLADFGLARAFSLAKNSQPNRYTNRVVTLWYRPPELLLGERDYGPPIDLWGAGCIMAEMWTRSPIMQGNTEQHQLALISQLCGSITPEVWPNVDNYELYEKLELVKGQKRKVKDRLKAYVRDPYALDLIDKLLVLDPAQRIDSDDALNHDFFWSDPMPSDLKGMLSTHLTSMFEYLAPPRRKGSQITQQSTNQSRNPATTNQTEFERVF

As to `O=C(Cc1cccc(NC2=CC(=O)N(C3CCC(=O)NC3=O)C2=O)c1)NC[C@H]1CC[C@H](CN2CCN(c3ccc(Nc4ncnc5c4ncn5[C@H]4C[C@@H](NC(=O)Cc5ccccc5)C4)cc3)CC2)CC1` (stereo partly drawn) [Compound 200, 2-(3-((1-(2,6-dioxopiperidin-3-yl)-2,5-dioxo-2,5-dihydro-1H-pyrrol-3-yl)amino)phenyl)-N-(((1r,4r)-4-((4-(4-((9-((1s,3s)-3-(2-phenylacetamido)cyclobutyl)-9H-purin-6-yl)amino)phenyl)piperazin-1-yl)methyl)cyclohexyl)methyl)acetamide], on CDK2, the “Enzyme degradation CDK2 (% remaining) @ 0.1 μM” value is recorded as 100/100/100%, the “Enzyme degradation CDK2 (% remaining) @ 1 μM” value is reported as 100/100/100% and the “Enzyme degradation CDK2 (% remaining) @ 10 μM” value was 100/100/100%. At CDK9, the “Enzyme degradation CDK9 (% remaining) @ 0.1 μM” value is listed as 20/20/20%, the “Enzyme degradation CDK9 (% remaining) @ 1 μM” value is 20/20/20% and the “Enzyme degradation CDK9 (% remaining) @ 10 μM” value is 20/20/20%.

Take `O=C1CCC(N2C(=O)c3cc(F)c(N4CCC(C(=O)N5CCC(CN6CCC(CCNc7ncnc8c7ncn8[C@H]7C[C@@H](NC(=O)Cc8ccccc8)C7)CC6)CC5)CC4)cc3C2=O)C(=O)N1` (stereo partly drawn) [Compound 461, N-((1s,3s)-3-(6-((2-(1-((1-(1-(2-(2,6-dioxopiperidin-3-yl)-6-fluoro-1,3-dioxoisoindolin-5-yl)piperidin-4-carbonyl)piperidin-4-yl)methyl)piperidin-4-yl)ethyl)amino)-9H-purin-9-yl)cyclobutyl)-2-phenylacetamide]: on CDK2, the “Enzyme degradation CDK2 (% remaining) @ 0.1 μM” value was 70%, the “Enzyme degradation CDK2 (% remaining) @ 1 μM” value is given as 40% and the “Enzyme degradation CDK2 (% remaining) @ 10 μM” value came to 40%. Besides, on CDK9, the “Enzyme degradation CDK9 (% remaining) @ 0.1 μM” value is given as 30%, the “Enzyme degradation CDK9 (% remaining) @ 1 μM” value is recorded as 0% and the “Enzyme degradation CDK9 (% remaining) @ 10 μM” value is 0%.

Turning to `Cc1cccc(C(=O)N[C@H]2C[C@@H](n3cnc4c(Nc5ccc(N6CCN(C7CC8(CCN(C(=O)C9CN(c%10ccc%11c(c%10)C(=O)N(C%10CCC(=O)NC%10=O)C%11=O)C9)CC8)C7)CC6)cc5)ncnc43)C2)n1` (stereo partly drawn) [Compound 387, N-((1s,3s)-3-(6-((4-(4-(7-(1-(2-(2,6-dioxopiperidin-3-yl)-1,3-dioxoisoindolin-5-yl)azetidin-3-carbonyl)-7-azaspiro[3.5]nonan-2-yl)piperazin-1-yl)phenyl)amino)-9H-purin-9-yl)cyclobutyl)-6-methylpicolinamide], at CDK2, the “Enzyme degradation CDK2 (% remaining) @ 0.1 μM” value was found to be 50%, the “Enzyme degradation CDK2 (% remaining) @ 1 μM” value worked out at 40% and the “Enzyme degradation CDK2 (% remaining) @ 10 μM” value was determined as 40%. For the same molecule, at CDK9, the “Enzyme degradation CDK9 (% remaining) @ 0.1 μM” value is 20%, the “Enzyme degradation CDK9 (% remaining) @ 1 μM” value is recorded as 0% and the “Enzyme degradation CDK9 (% remaining) @ 10 μM” value was determined as 0%.

As for `Cc1cccc(C(=O)NC2CC(n3cnc4c(NCCCN5CCN(CC6CCN(C(=O)COc7cccc8c7C(=O)N([C@@H]7CCC(=O)NC7=O)C8=O)CC6)CC5)ncnc43)C2)n1` (stereo partly drawn) [Compound 142, N-((1r,3r)-3-(6-((3-(4-((1-(2-((2-(2,6-dioxopiperidin-3-yl)-1,3-dioxoisoindolin-4-yl)oxy)acetyl)piperidin-4-yl)methyl)piperazin-1-yl)propyl)amino)-9H-purin-9-yl)cyclobutyl)-6-methylpicolinamide], on CDK2, the “Enzyme degradation CDK2 (% remaining) @ 0.1 μM” value amounted to 80%, the “Enzyme degradation CDK2 (% remaining) @ 1 μM” value amounted to 70% and the “Enzyme degradation CDK2 (% remaining) @ 10 μM” value is listed as 50%. Moreover, at CDK9, the “Enzyme degradation CDK9 (% remaining) @ 0.1 μM” value stood at 70%, the “Enzyme degradation CDK9 (% remaining) @ 1 μM” value is recorded as 0% and the “Enzyme degradation CDK9 (% remaining) @ 10 μM” value is 0%.

Consider `Cc1cccc(C(=O)N[C@H]2C[C@@H](n3cnc4c(NCc5cccc(N6CCN(CC7CCN(c8cccc9c8C(=O)N([C@H]8CCC(=O)NC8=O)C9=O)CC7)CC6)c5)ncnc43)C2)n1` [Compound 136, N-((1s,3s)-3-(6-((3-(4-((1-(2-(2,6-dioxopiperidin-3-yl)-1,3-dioxoisoindolin-4-yl)piperidin-4-yl)methyl)piperazin-1-yl)benzyl)amino)-9H-purin-9-yl)cyclobutyl)-6-methylpicolinamide], for which, at CDK2, the “Enzyme degradation CDK2 (% remaining) @ 0.1 μM” value is reported as 100%, the “Enzyme degradation CDK2 (% remaining) @ 1 μM” value is 100% and the “Enzyme degradation CDK2 (% remaining) @ 10 μM” value is 60%. On CDK9, the “Enzyme degradation CDK9 (% remaining) @ 0.1 μM” value stood at 10%, the “Enzyme degradation CDK9 (% remaining) @ 1 μM” value is on record as 70% and the “Enzyme degradation CDK9 (% remaining) @ 10 μM” value amounted to 40%.

`O=C1CC[C@H](N2C(=O)c3ccc(NCC(=O)N4CCC5(CC4)CC(N4CCC(c6ccc(Nc7ncnc8c7ncn8[C@H]7C[C@@H](NC(=O)Cc8ccccc8)C7)cc6)CC4)C5)cc3C2=O)C(=O)N1` (racemic) [Compound 296, N-((1s,3s)-3-(6-((4-(1-(7-((2-(2,6-dioxopiperidin-3-yl)-1,3-dioxoisoindolin-5-yl)glycyl)-7-azaspiro[3.5]nonan-2-yl)piperidin-4-yl)phenyl)amino)-9H-purin-9-yl)cyclobutyl)-2-phenylacetamide]: at CDK2, the “Enzyme degradation CDK2 (% remaining) @ 0.1 μM” value is listed as 20%, the “Enzyme degradation CDK2 (% remaining) @ 1 μM” value worked out at 0% and the “Enzyme degradation CDK2 (% remaining) @ 10 μM” value turned out to be 0%. Moreover, at CDK9, the “Enzyme degradation CDK9 (% remaining) @ 0.1 μM” value is on record as 0/0/0%, the “Enzyme degradation CDK9 (% remaining) @ 1 μM” value is 0/0/0% and the “Enzyme degradation CDK9 (% remaining) @ 10 μM” value is listed as 0/0/0%.

On to `O=C1CC[C@@H](c2ccc(OCC(=O)N3CCC(CN4CCN(c5ccc(Nc6ncnc7c6ncn7[C@H]6C[C@@H](NC(=O)c7cccc(Cl)n7)C6)cc5)CC4)CC3)cc2)C(=O)N1` [Compound 440, 6-chloro-N-((1s,3s)-3-(6-((4-(4-((1-(2-(4-(2,6-dioxopiperidin-3-yl)phenoxy)acetyl)piperidin-4-yl)methyl)piperazin-1-yl)phenyl)amino)-9H-purin-9-yl)cyclobutyl)picolinamide], for which, on CDK2, the “Enzyme degradation CDK2 (% remaining) @ 0.1 μM” value is 20/20/20%, the “Enzyme degradation CDK2 (% remaining) @ 1 μM” value is reported as 20/20/20% and the “Enzyme degradation CDK2 (% remaining) @ 10 μM” value is on record as 20/20/20%. Besides, on CDK9, the “Enzyme degradation CDK9 (% remaining) @ 0.1 μM” value is given as 10/10/10%, the “Enzyme degradation CDK9 (% remaining) @ 1 μM” value is reported as 10/10/10% and the “Enzyme degradation CDK9 (% remaining) @ 10 μM” value is reported as 10/10/10%.

`Cc1cccc(C(=O)N[C@H]2C[C@@H](n3cnc4c(Nc5ccc(N6CCN(C7CC8(CCN(c9cc%10c(cc9F)C(=O)N([C@H]9CCC(=O)NC9=O)C%10=O)CC8)C7)CC6)cc5)ncnc43)C2)n1` [Compound 385, N-((1s,3s)-3-(6-((4-(4-(7-(2-(2,6-dioxopiperidin-3-yl)-6-fluoro-1,3-dioxoisoindolin-5-yl)-7-azaspiro[3.5]nonan-2-yl)piperazin-1-yl)phenyl)amino)-9H-purin-9-yl)cyclobutyl)-6-methylpicolinamide]: on CDK2, the “Enzyme degradation CDK2 (% remaining) @ 0.1 μM” value is on record as 40%, the “Enzyme degradation CDK2 (% remaining) @ 1 μM” value amounted to 30% and the “Enzyme degradation CDK2 (% remaining) @ 10 μM” value worked out at 30%. In addition, on CDK9, the “Enzyme degradation CDK9 (% remaining) @ 0.1 μM” value was 0/0/0%, the “Enzyme degradation CDK9 (% remaining) @ 1 μM” value is given as 0/0/0% and the “Enzyme degradation CDK9 (% remaining) @ 10 μM” value is given as 0/0/0%.
